In ChEMBL document CHEMBL1150700, “Antitumor agents, 74. Bruceanol-A and -B, two new antileukemic quassinoids from Brucea antidysenterica” (1985):

Key:
Assay type in all cases: functional
P388 [1] = test: In vivo antitumor activity against mouse P388 cells at 0.5 mg/kg in 3 day dosing schedule relative to control
P388 [2] = test: In vivo antitumor activity against mouse P388 cells at 2 mg/kg in 3 day dosing schedule relative to control
P388 [3] = test: In vivo antitumor activity against mouse P388 cells at 1 mg/kg in 3 day dosing schedule relative to control
P388 [4] = test: In vivo antitumor activity against mouse P388 cells at 200 mg/kg in 1 day dosing schedule relative to control

Row | SMILES | T/C (P388 [1]) | T/C (P388 [2]) | T/C (P388 [3]) | T/C (P388 [4])
1 | CCCCCC(=O)O[C@H]1C(=O)O[C@@H]2C[C@H]3C(C)=CC(=O)[C@@H](O)[C@]3(C)[C@H]3[C@@H](O)[C@H](O)[C@@]4(C(=O)OC)OC[C@]32[C@@H]14 | 123% | 134% | – | –
2 | COC(=O)[C@@]12OC[C@]34[C@H]([C@@H](O)[C@@H]1O)[C@@]1(C)[C@H](O)C(=O)C=C(C)[C@@H]1C[C@H]3OC(=O)[C@H](OC(=O)c1ccccc1)[C@@H]24 | 130% | – | 129% | –
3 | O=c1[nH]cc(F)c(=O)[nH]1 [FLUOROURACIL] | – | – | – | 135%
